Drawing on paper PMC12040169 (PLOS Biology, 2025), this text covers viability for 56 compounds.

The data set in a line: in vitro. The following applies: human, hela cells, % viability.

The term viability denotes a read-out of living cells in per cent, often relative to untreated cells. On to `CC1(C)NC(=O)N(CC(O)COc2cc3ccccc3cc2C(=O)N2CCCCC2)C1=O` (centres unmarked) [CBK019029], for which the viability at 28.5 h, 10 µM turned out to be 120%. On the same count and under the same terms, the result for `NS(=O)(=O)c1ccc(CN2CCCC2=O)cc1` [CBK288420] reads 108%; that for `COc1cc(-c2cc(-c3ccccc3)nc(SCC(=O)O)c2C#N)cc(OC)c1OC` [CBK131867], 99.3%; that for `Cc1cc(C2(C(F)(F)F)C=C3c4ccccc4CC(C)(C)N3C2=O)cc(C)c1O` (centres unmarked) [CBK017463], 99.2%. Same read-out and setting: to `O=C(O)c1ccc(NS(=O)(=O)c2ccc(Cl)cc2)cc1O` [CBK200023] belongs 106%; to `Cc1oc2ccc(O)cc2c1C(=O)N(C)C(C)Cc1ccccn1` (centres unmarked) [CBK282627], 96.2%; to `CC(C)(C)CC(=O)N[C@H]1C[C@H]2C(=O)Nc3ccccc3C(=O)N2C1` [CBK289352], 96.2%. With `CCc1n[nH]c(C2CN(Cc3nc4c(F)cccc4[nH]3)CCO2)n1` (centres unmarked) [CBK304117], the viability at 28.5 h, 10 µM was 90.9%. On the same count and under the same terms, to `Cc1nc(CN(C)C2CCN(Cc3ccc4c(c3)CCC4)C2)no1` (centres unmarked) [CBK304052] belongs 76.5%. Take `COc1ccc(CCNCc2ccc([N+](=O)[O-])cc2)cc1OC` [CBK262217]: where the note is “bulk resorufin, single well”, the viability at 28.5 h, 10 µM is 115%.

On to `NS(=O)(=O)c1ccc(NC(=S)NNC(=O)c2ccc(Br)o2)cc1` [CBK266972], for which the viability at 28.5 h, 10 µM is 95.8%. As to `O=C(c1ccoc1)N1CCC2(CCCN(Cc3ccc4ccccc4c3)C2)C1` (centres unmarked) [CBK132811], the viability at 28.5 h, 10 µM is 90.1%. Regarding `CCC(=O)N1CCc2cc(C(O)CN3CCCCC3C)ccc21` (centres unmarked) [CBK283112], the viability at 28.5 h, 10 µM came to 105%. On the same count and under the same terms, the result for `CC(=O)Nc1ccc(S(=O)(=O)N2CCN(C/C=C/c3ccccc3)CC2)cc1` [CBK261545] reads 114%; that for `Cc1nc2c(c(=O)[nH]1)CN(C(=O)c1cc(C3CC3)oc1C)CC2` [CBK283650], 103%.

As to `Cc1nc(C(F)(F)F)ccc1C(=O)N1C=CC(C(F)(F)F)=NCC1` [CBK057187], the viability at 28.5 h, 10 µM turned out to be 113%. Same read-out and setting: the result for `CCn1c2cc(C)sc2c2cnn(CC(=O)NC(C)(C)C)c(=O)c21` [CBK284152] reads 92.5%; that for `Cc1cc(NC(=O)CN2CCN(Cc3ccc4c(c3)CCO4)CC2)on1` [CBK305610], 92.5%. Still for that read-out and setting: to `Cc1ccc(C#N)c(NCc2ccccc2CN2CCCC2CO)n1` (centres unmarked) [CBK304076] belongs 75.5%. With `Cc1ccc(C(=O)N2C[C@H]3NC(=O)c4ccccc4C(=O)[C@@]3(C)C2)cc1` [CBK285315], the viability at 28.5 h, 10 µM amounted to 87.6%. With `COc1ccc(N2C(=O)CC(N3CCN(C4CC(=O)N(c5ccc(OC)cc5)C4=O)CC3)C2=O)cc1` (centres unmarked) [CBK260907], the viability at 28.5 h, 10 µM came to 88.2%. As to `CCOC(=O)N1CCN(C(=O)C2CC=CCC2C(=O)O)CC1` (centres unmarked) [CBK266142], the viability at 28.5 h, 10 µM came to 104%. Take `O=C(c1cccs1)N1CCC(n2cnc3cccnc32)CC1` [CBK283938]: the viability at 28.5 h, 10 µM worked out at 88.4%. On to `CCc1c(C)nc2ccc(Br)cc2c1SCCC(=O)O` [CBK126914], for which the viability at 28.5 h, 10 µM came to 113%. Consider `Cc1nn(CCC(=O)NC(c2ccccc2)c2cccnc2)c(C)c1C` (centres unmarked) [CBK282547], for which the viability at 28.5 h, 10 µM came out at 86.3%.

Regarding `Cc1cc(CNC(=O)Nc2ccc(F)c(-n3nnnc3C)c2)n(C)n1` [CBK305525], the viability at 28.5 h, 10 µM was found to be 88.4%.

`Cc1nn(C)cc1-c1cncn1CCn1nc(C)c(C)c1C` [CBK281785]: the viability at 28.5 h, 10 µM turned out to be 108%. Turning to `C/C(=N\N1CCN(Cc2cccc3ccccc23)CC1)c1ccncc1` [CBK263574], the viability at 28.5 h, 10 µM was determined as 98.9%. On the same count and under the same terms, the result for `c1ccc2c(c1)nc1n2CCN1CCN1CCCCC1` [CBK278283C] reads 98.5%. On to `CCCCC12CN3CC(C)(CN(C1)C31C(=O)N(C)c3ccc(C)cc31)C2=O` (centres unmarked) [CBK267286], for which the viability at 28.5 h, 10 µM is 96.1%. On the same count and under the same terms, to `O=C(O)CN1C(=O)/C(=C\c2ccc(Oc3ccc(C(F)(F)F)cc3[N+](=O)[O-])cc2)SC1=S` [CBK264809] belongs 97.9%; to `COC(=O)c1ccc(S(=O)(=O)N2CCc3ccccc3C2)cc1` [CBK068696], 109%; to `CC(C)(O)C#Cc1ccccc1C(=O)NC(Cc1c[nH]c2ccccc12)C(=O)O` (centres unmarked) [CBK267701], 80.4%. On the same count and under the same terms, to `Cc1cc2c(o1)c1cnn(CC(=O)N(C(C)C)C(C)C)c(=O)c1n2C` [CBK282392] belongs 83.2%; to `O=C(OCc1ccccc1)N1CCC2(CC1)CN(CCO)c1ccccc12` [CBK022627], 105%; to `CC(=O)NCCCSCc1cn2cccc(C)c2n1` [CBK304809], 98.5%. Same read-out and setting: the result for `O=C1N=C(NC2CCCC2)OC12CCN(Cc1ccccc1)CC2` [CBK115430] reads 103%; that for `CS(=O)(=O)N1CC2(CCN(Cc3ccccc3)CC2)c2ccccc21` [CBK084003], 89.9%; that for `O=c1[nH]c2ncc(-c3ccco3)nc2n1CCCN1CCOCC1` [CBK064319], 90.6%.

Consider `Cc1cccnc1C(NC(=O)C1CCN(CCCN2C(=O)CC3CCCCC3C2=O)CC1)c1ccc(F)cc1` (centres unmarked) [CBK147910], for which the viability at 28.5 h, 10 µM came to 91.2%. On to `Nc1ncc(-c2ccc(F)cc2)c(C2CCCN(C(=O)CCc3ccc(F)cc3)C2)n1` (centres unmarked) [CBK286092], for which the viability at 28.5 h, 10 µM amounted to 89%.

Take `COc1ccccc1NC(=O)C(C)N1C(=O)c2ccccc2C1=O` (centres unmarked) [CBK261043]: the viability at 28.5 h, 10 µM came out at 92%. Still for that read-out and setting: to `CC(=O)NC(c1ccccn1)C1CCCN(C(=O)C2CCCCC2)C1` (centres unmarked) [CBK285031] belongs 109%; to `O=C(N/N=C/c1ccc(O)cc1)C(=O)N/N=C/c1ccc(O)cc1` [CBK261625], 88.7%. Take `COc1ccc(-c2ccc(=O)n(CC(=O)NCc3ccc(C(=O)O)cc3)n2)c(F)c1` [CBK286776]: the viability at 28.5 h, 10 µM amounted to 91.5%. Same read-out and setting: the result for `COc1ccc(C(=O)N(Cc2ccco2)Cc2cc3ccccc3nc2O)cc1` [CBK269594] reads 95.9%; that for `Oc1ccc(-n2cc(-c3ccsc3)nn2)cc1` [CBK113093], 84.6%.

As for `Cc1c(C(=O)N(CC(=O)O)C2CC2)nnn1-c1ccc(Cl)cc1F` [CBK304738], the viability at 28.5 h, 10 µM turned out to be 91.1%.

With `CC(C)NC(=O)N1CCCC1c1nc(-c2ccc(Cl)cc2)c2ccccn12` (centres unmarked) [CBK046947], the viability at 28.5 h, 10 µM came to 84%. Still for that read-out and setting: to `O=[N+]([O-])c1ccccc1OCCCn1cnc2ccccc21` [CBK267820G] belongs 44.2%; to `O=C(Nc1nc(-c2ccc(S(=O)(=O)N3CCCC3)cc2)cs1)C1COc2ccccc2O1` (centres unmarked) [CBK096353], 101%.

With `COc1ccc(NC(=O)CSc2ncnc3ccccc23)cc1` [CBK270215], the viability at 28.5 h, 10 µM turned out to be 94%.

As to `O=C(Nc1ccccc1)N[C@H]1CO[C@H]2[C@@H]1OC[C@H]2OCc1ccccc1` [CBK289488], the viability at 28.5 h, 10 µM turned out to be 109%. For `O=C(O)c1cccc2c1C(=O)N(c1ccccc1)C2` [CBK101054], the viability at 28.5 h, 10 µM was found to be 91.4%.

`Cc1cccc(-c2ncc(NC(=O)Cc3ccc(-c4ccccc4)cc3)nc2-c2ccc(N(C)C)cc2)c1` [CBK037567]: the viability at 28.5 h, 10 µM worked out at 98.1%. Same read-out and setting: to `CN(C)[C@@H]1CN(Cc2ccc(O)cc2)C[C@H]1c1cn(C)c2ccccc12` [CBK284952] belongs 108%.
